Source: article PMC5847526, “Inhibition of neuronal FLT3 receptor tyrosine kinase alleviates peripheral neuropathic pain in mice” (Nature Communications, 2018)
pIC50: −log10 of the molar value.

Legend:
[1] = target: Interleukin-1 receptor-associated kinase 4 (IRAK4) (Homo sapiens, UniProt Q9NWZ3); experiment: kinase selectivity panel, inhibition of staurosporine binding at a single concentration ([…])
[2] = target: T1, fms-like tyrosine kinase 3 receptor (FLT3) (Homo sapiens, UniProt P36888); experiment: trFRET inhibition of Red-FL binding to SNAP-FLT3 on HEK293 cells; FL-induced FLT3 phosphorylation in RS4-11 cells (IC50 […]); assay type: cell-based
T1 construct: SNAP-FLT3 (Lumi4-Tb labelled) in HEK293 cells; endogenous FLT3 in RS4-11 cells

[3] = target: T2, AurA/Aur2 kinase (Homo sapiens, UniProt O14965); experiment: biochemical; design: ExpresS Diversity kinase profile (Eurofins Cerep P10), per cent inhibition; conditions: read-out: Inhibition of reference binding (Table 4)
T2 construct: gene AURKA

[4] = target: T3, CHK2 (Homo sapiens, UniProt O96017); experiment: biochemical; design: ExpresS Diversity kinase profile (Eurofins Cerep P10), per cent inhibition; conditions: read-out: Inhibition of reference binding (Table 4)
T3 construct: gene CHEK2

[5] = target: FGFR1 kinase (Homo sapiens, UniProt P11362); experiment: biochemical; design: ExpresS Diversity kinase profile (Eurofins Cerep P10), per cent inhibition; conditions: read-out: Inhibition of reference binding (Table 4)
Sequence of FGFR1 kinase (P11362 whole entry): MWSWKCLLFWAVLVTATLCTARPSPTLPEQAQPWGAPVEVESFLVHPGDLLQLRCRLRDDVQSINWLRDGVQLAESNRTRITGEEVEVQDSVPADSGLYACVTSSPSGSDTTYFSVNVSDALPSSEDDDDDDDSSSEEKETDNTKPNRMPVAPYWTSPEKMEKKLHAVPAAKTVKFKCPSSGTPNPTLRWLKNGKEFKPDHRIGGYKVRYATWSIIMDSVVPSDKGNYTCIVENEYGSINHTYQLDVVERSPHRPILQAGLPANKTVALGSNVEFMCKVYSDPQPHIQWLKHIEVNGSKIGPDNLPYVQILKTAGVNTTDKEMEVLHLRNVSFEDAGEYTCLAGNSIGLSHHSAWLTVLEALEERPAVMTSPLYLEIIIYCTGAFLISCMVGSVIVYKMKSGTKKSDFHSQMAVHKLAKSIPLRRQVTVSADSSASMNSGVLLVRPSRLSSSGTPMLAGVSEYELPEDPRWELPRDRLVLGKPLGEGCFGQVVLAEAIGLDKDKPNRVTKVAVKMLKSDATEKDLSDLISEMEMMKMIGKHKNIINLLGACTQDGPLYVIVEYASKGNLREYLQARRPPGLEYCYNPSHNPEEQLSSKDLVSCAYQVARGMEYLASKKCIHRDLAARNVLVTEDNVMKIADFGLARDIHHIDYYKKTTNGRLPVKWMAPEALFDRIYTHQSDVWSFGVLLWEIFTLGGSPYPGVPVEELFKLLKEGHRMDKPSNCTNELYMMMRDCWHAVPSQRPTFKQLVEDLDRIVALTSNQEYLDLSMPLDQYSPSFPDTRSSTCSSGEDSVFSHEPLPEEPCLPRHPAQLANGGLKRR

[6] = target: FGFR3 kinase (Homo sapiens, UniProt P22607); experiment: biochemical; design: ExpresS Diversity kinase profile (Eurofins Cerep P10), per cent inhibition; conditions: read-out: Inhibition of reference binding (Table 4)
[7] = target: T4, Fms/CSFR kinase (Homo sapiens, UniProt P07333); experiment: biochemical; design: ExpresS Diversity kinase profile (Eurofins Cerep P10), per cent inhibition; conditions: read-out: Inhibition of reference binding (Table 4)
T4 construct: gene CSF1R

[8] = target: T5, GSK3β (Homo sapiens, UniProt P49841); experiment: biochemical; design: ExpresS Diversity kinase profile (Eurofins Cerep P10), per cent inhibition; conditions: read-out: Inhibition of reference binding (Table 4)
T5 construct: gene GSK3B

[9] = target: JAK3 (Homo sapiens, UniProt P52333); experiment: biochemical; design: ExpresS Diversity kinase profile (Eurofins Cerep P10), per cent inhibition; conditions: read-out: Inhibition of reference binding (Table 4)
[10] = target: Lck kinase (Homo sapiens, UniProt P06239); experiment: biochemical; design: ExpresS Diversity kinase profile (Eurofins Cerep P10), per cent inhibition; conditions: read-out: Inhibition of reference binding (Table 4)
[11] = target: MAPKAPK2 (Homo sapiens, UniProt P49137); experiment: biochemical; design: ExpresS Diversity kinase profile (Eurofins Cerep P10), per cent inhibition; conditions: read-out: Inhibition of reference binding (Table 4)
[12] = target: T6, MNK2 (Homo sapiens, UniProt Q9HBH9); experiment: biochemical; design: ExpresS Diversity kinase profile (Eurofins Cerep P10), per cent inhibition; conditions: read-out: Inhibition of reference binding (Table 4)
T6 construct: gene MKNK2

[13] = target: T7, PDGFRα (Homo sapiens, UniProt P16234); experiment: biochemical; design: ExpresS Diversity kinase profile (Eurofins Cerep P10), per cent inhibition; conditions: read-out: Inhibition of reference binding (Table 4)
T7 construct: gene PDGFRA
T7 sequence (P16234 whole entry): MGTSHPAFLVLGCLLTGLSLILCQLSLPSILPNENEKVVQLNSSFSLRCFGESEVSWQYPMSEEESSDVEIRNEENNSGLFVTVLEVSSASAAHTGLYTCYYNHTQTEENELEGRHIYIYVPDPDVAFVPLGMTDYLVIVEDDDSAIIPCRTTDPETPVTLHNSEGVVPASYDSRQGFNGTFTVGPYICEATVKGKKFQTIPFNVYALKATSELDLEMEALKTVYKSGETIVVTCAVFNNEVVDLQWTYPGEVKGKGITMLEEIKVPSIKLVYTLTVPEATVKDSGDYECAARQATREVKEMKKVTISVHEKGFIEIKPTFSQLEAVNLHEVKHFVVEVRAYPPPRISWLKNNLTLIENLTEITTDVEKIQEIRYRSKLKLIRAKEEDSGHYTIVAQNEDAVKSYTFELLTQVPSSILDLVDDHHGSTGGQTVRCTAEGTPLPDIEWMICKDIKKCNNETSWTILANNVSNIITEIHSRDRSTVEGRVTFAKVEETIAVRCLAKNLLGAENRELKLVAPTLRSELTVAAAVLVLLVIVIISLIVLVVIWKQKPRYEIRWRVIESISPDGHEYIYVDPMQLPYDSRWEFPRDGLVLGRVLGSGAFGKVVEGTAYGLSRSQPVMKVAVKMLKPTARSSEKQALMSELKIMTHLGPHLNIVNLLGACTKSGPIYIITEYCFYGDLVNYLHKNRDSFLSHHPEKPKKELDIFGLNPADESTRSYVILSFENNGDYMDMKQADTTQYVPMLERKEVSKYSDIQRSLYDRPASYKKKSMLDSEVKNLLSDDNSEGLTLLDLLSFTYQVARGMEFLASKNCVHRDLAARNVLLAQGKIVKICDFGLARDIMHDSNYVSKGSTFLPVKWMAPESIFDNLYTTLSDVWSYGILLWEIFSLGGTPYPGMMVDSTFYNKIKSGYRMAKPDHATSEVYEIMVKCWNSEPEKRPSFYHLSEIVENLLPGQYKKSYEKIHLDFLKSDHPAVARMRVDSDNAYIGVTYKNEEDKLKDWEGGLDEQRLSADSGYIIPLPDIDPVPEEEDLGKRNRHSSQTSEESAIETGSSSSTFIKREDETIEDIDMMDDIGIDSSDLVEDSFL

[14] = target: T8, PDGFRβ (Homo sapiens, UniProt P09619); experiment: biochemical; design: ExpresS Diversity kinase profile (Eurofins Cerep P10), per cent inhibition; conditions: read-out: Inhibition of reference binding (Table 4)
T8 construct: gene PDGFRB

[15] = target: T9, PDK1 (Homo sapiens, UniProt O15530); experiment: biochemical; design: ExpresS Diversity kinase profile (Eurofins Cerep P10), per cent inhibition; conditions: read-out: Inhibition of reference binding (Table 4)
T9 construct: gene PDPK1

[16] = target: T10, PKCbeta 2 (Homo sapiens, UniProt P05771); experiment: biochemical; design: ExpresS Diversity kinase profile (Eurofins Cerep P10), per cent inhibition; conditions: read-out: Inhibition of reference binding (Table 4)
T10 construct: gene PRKCB; isoform beta 2

[17] = target: T11, RAF-1 kinase (Homo sapiens, UniProt P04049); experiment: biochemical; design: ExpresS Diversity kinase profile (Eurofins Cerep P10), per cent inhibition; conditions: read-out: Inhibition of reference binding (Table 4)
T11 construct: gene RAF1

[18] = target: ROCK1 (Homo sapiens, UniProt Q13464); experiment: biochemical; design: ExpresS Diversity kinase profile (Eurofins Cerep P10), per cent inhibition; conditions: read-out: Inhibition of reference binding (Table 4)
[19] = target: TAOK2 (Homo sapiens, UniProt Q9UL54); experiment: biochemical; design: ExpresS Diversity kinase profile (Eurofins Cerep P10), per cent inhibition; conditions: read-out: Inhibition of reference binding (Table 4)
[20] = target: T12, p38α kinase (Homo sapiens, UniProt Q16539); experiment: biochemical; design: ExpresS Diversity kinase profile (Eurofins Cerep P10), per cent inhibition; conditions: read-out: Inhibition of reference binding (Table 4)
T12 construct: gene MAPK14

[21] = target: PRLR-JAK1 (Homo sapiens, UniProt P16471); experiment: cell-based; design: PathHunter eXpress functional assay (DiscoverX tkMAX), inhibition of reference ligand response; conditions: read-out: % Inhibition of reference binding (Table 3)
Sequence of PRLR-JAK1 (P16471 whole entry): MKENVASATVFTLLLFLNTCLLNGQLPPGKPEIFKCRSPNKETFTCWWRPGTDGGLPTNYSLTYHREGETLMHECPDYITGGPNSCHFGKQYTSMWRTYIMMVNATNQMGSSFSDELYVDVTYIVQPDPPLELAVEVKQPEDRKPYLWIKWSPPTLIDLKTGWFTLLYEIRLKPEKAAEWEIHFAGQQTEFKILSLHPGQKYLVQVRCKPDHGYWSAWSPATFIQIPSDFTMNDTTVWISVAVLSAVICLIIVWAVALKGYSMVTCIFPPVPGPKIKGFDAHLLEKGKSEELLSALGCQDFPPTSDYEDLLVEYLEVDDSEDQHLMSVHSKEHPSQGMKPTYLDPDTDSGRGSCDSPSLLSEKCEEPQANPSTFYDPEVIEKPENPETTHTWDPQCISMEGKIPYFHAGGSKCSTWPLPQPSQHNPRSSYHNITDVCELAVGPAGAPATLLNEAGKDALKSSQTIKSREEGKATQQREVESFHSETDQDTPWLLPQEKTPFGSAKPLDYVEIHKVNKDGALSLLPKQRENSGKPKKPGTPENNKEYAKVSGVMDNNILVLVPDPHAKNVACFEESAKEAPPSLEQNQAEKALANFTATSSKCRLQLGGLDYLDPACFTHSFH
Sequence of PRLR-JAK1 (P23458 whole entry partner): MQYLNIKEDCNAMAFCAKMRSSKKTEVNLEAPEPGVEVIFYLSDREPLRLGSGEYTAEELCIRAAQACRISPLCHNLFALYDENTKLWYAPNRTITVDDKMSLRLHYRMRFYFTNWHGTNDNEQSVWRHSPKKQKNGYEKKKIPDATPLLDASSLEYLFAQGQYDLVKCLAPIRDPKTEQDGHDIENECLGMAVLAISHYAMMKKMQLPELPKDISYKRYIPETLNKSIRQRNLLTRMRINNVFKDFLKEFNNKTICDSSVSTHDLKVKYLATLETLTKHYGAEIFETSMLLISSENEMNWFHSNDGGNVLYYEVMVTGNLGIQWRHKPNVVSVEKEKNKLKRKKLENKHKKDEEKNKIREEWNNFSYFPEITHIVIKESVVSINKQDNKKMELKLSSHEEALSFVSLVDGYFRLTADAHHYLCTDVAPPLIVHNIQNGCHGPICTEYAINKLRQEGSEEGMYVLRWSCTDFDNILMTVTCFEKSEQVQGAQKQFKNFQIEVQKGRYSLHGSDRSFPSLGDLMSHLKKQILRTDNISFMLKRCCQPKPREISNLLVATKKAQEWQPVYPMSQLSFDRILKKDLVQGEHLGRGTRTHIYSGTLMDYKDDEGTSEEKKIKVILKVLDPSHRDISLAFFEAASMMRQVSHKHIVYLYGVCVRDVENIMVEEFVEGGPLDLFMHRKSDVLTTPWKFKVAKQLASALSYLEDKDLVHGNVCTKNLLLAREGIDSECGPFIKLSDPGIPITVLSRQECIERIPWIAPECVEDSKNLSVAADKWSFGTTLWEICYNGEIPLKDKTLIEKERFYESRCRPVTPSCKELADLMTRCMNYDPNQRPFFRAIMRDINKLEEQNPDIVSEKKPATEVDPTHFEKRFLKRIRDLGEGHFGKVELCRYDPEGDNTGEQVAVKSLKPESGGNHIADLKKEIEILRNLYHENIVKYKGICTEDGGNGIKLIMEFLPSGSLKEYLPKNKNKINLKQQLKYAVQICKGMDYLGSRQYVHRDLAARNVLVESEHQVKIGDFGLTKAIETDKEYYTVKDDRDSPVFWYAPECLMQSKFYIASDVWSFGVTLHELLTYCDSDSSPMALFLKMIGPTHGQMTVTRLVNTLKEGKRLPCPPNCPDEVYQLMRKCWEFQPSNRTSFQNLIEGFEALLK

[22] = target: ErbB2-ErbB3 (Homo sapiens, UniProt P04626+P21860); experiment: cell-based; design: PathHunter eXpress functional assay (DiscoverX tkMAX), inhibition of reference ligand response; conditions: read-out: % Inhibition of reference binding (Table 3)
[23] = target: EphA5 (Homo sapiens, UniProt P54756); experiment: cell-based; design: PathHunter eXpress functional assay (DiscoverX tkMAX), inhibition of reference ligand response; conditions: read-out: % Inhibition of reference binding (Table 3)
[24] = target: EphB2 (Homo sapiens, UniProt P29323); experiment: cell-based; design: PathHunter eXpress functional assay (DiscoverX tkMAX), inhibition of reference ligand response; conditions: read-out: % Inhibition of reference binding (Table 3)
[25] = target: T13, ErbB1 (Homo sapiens, UniProt P00533); experiment: cell-based; design: PathHunter eXpress functional assay (DiscoverX tkMAX), inhibition of reference ligand response; conditions: read-out: % Inhibition of reference binding (Table 3)
T13 construct: gene EGFR
T13 sequence (P00533 whole entry): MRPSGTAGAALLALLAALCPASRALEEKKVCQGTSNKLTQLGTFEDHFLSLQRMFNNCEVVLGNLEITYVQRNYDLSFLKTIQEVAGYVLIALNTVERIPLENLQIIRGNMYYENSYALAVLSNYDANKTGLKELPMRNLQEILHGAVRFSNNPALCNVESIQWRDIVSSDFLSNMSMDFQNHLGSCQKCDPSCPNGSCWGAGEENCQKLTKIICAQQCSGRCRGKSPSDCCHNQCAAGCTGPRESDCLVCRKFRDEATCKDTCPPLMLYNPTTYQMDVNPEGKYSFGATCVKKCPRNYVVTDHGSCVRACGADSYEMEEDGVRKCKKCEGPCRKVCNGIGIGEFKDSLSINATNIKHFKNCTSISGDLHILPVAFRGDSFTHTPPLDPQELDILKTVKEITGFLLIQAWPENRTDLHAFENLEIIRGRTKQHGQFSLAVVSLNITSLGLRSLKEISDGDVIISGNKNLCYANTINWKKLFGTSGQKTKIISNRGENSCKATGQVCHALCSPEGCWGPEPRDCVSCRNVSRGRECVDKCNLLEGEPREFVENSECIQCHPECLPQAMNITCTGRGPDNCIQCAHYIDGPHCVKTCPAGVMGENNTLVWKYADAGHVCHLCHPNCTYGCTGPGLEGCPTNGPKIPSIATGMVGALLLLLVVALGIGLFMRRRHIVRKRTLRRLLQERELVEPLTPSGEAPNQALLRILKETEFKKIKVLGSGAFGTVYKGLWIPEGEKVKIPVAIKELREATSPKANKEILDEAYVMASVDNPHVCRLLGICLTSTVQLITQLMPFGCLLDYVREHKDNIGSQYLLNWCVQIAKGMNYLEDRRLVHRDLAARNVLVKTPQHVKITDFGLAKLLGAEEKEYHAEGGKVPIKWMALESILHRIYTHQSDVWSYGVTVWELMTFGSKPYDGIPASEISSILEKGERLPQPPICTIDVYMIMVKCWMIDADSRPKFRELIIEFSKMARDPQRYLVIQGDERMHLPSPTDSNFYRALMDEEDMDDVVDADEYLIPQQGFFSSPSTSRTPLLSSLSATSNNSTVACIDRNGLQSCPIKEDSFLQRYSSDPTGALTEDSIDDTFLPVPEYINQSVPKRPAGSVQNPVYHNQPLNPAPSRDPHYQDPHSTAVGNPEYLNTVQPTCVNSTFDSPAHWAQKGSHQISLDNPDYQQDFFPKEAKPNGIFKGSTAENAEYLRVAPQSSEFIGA

[26] = target: KDR (Homo sapiens, UniProt P35968); experiment: cell-based; design: PathHunter eXpress functional assay (DiscoverX tkMAX), inhibition of reference ligand response; conditions: read-out: % Inhibition of reference binding (Table 3)
[27] = target: c-Ret-GFRα2 (Homo sapiens, UniProt P07949); experiment: cell-based; design: PathHunter eXpress functional assay (DiscoverX tkMAX), inhibition of reference ligand response; conditions: read-out: % Inhibition of reference binding (Table 3)

inhibition at 10 µM [1]: 64% | pIC50 [2]: 4.96 | inhibition at 10 µM [3]: -5% | inhibition at 10 µM [4]: 6% | inhibition at 10 µM [5]: -7% | inhibition at 10 µM [6]: 33% | inhibition at 10 µM [7]: 1% | inhibition at 10 µM [8]: 0% | inhibition at 10 µM [9]: -3% | inhibition at 10 µM [10]: -14% | inhibition at 10 µM [11]: 6% | inhibition at 10 µM [12]: -7% | inhibition at 10 µM [13]: 40% | inhibition at 10 µM [14]: -2% | inhibition at 10 µM [15]: 3% | inhibition at 10 µM [16]: 1% | inhibition at 10 µM [17]: 11% | inhibition at 10 µM [18]: 2% | inhibition at 10 µM [19]: 33% | inhibition at 10 µM [20]: 23% | inhibition at 10 µM [21]: 6.1% | inhibition at 10 µM [22]: 13.6% | inhibition at 10 µM [23]: 5% | inhibition at 10 µM [24]: 1.4% | inhibition at 10 µM [25]: 8.7% | inhibition at 10 µM [26]: -3.1% | inhibition at 10 µM [27]: -4.1%
Compound: O=C(Nc1cc(Cl)ccc1O)c1cccc(S(=O)(=O)N2CCCCC2)c1 [compound 66, BDT001]
